Holding throughout (type): cell-based
Assay [1] relates to Staphylococcus epidermidis (ATC 14990). The experiment in a line: Agar plate inhibition halo test according to Example 5, overnight culture. The protocol: Cells of Staphylococcus epidermidis 498 and Bacillus subtilis 168 are plated out on agar plates such that, after incubation overnight at 37° C., they have formed a visible cell lawn on the agar. […] A hole was in each case punched in the centre of the plates. […] After incubation overnight, the agar was examined for diffusing antibiotic active compounds in that the missing cell lawn around the punched-out hole can be seen (“inhibition halos”). These inhibition halos were compared with an agar plate without further additives and an agar plate with an active compound-free nanourea dispersion. A test according to Example 5 was carried out in an overnight culture of Staphylococcus epidermidis (ATC 14990). The underlying active compound-loaded dispersions F to K were in turn prepared analogously to Example 2. As comparisons L to O, aqueous solutions having various concentrations of ciprofloxacin (Cipro) were additionally tested.

Assay [2] concerns Bacillus subtilis 168. Briefly: Agar plate inhibition halo test of active compound-loaded nanourea dispersions. To be noted: 100 μl dialysed active compound-loaded nanourea dispersion of Example 2 (about 3% active compound on solids), incubation overnight, Müller-Hinton agar. The protocol:
(§1) Cells of Staphylococcus epidermidis 498 and Bacillus subtilis 168 are plated out on agar plates such that, after incubation overnight at 37° C., they have formed a visible cell lawn on the agar. The agar contained a complex nutrient-rich medium (Müller-Hinton medium, OD600=0.1 set; 200 μl plated out per plate, dried at room temperature for one hour). A hole was in each case punched in the centre of the plates.

Assay [3] has as its system Staphylococcus epidermidis 498. The description is as above. The following applies: 100 μl dialysed active compound-loaded nanourea dispersion of Example 2 (about 3% active compound on solids), incubation overnight, Müller-Hinton agar. The protocol:
as §1

Where [4] appears, read: active compound-loaded nanourea dispersion prepared analogously to Example 2.

In assay [1] (setting [4]), `CC(=O)Oc1ccccc1C(=O)O` [Acetylsalicylic acid] showed an Inhibition halo of 13 mm. In the case of `O=C(O)c1cn(C2CC2)c2cc(N3CCNCC3)c(F)cc2c1=O` [Cipro, Ciprofloxacin], the Inhibition halo was found to be 11 mm in assay [1] (aqueous solution, 0.001 mM (comparison O)); 26 mm in assay [1] (aqueous solution, 0.01 mM (comparison N)); 36 mm in assay [1] (aqueous solution, 0.1 mM (comparison M)); 43 mm in assay [1] (aqueous solution, 1 mM (comparison L)). Take `C=O` [Formaldehyde]: the Inhibition halo in assay [1] (setting [4]) is reported as 21 mm. Still for that read-out and setting: the same measure for `COCN(COC)c1nc(N(COC)COC)nc(N(COC)COC)n1` [Hexamethoxymethylmelamine]: 13 mm. Still for that read-out and setting: the same measure for `O=C(O)c1ccccc1O` [Salicylic acid]: 38 mm. Consider `O=[N+]([O-])[O-].[Ag+]` [Silver nitrate], for which the “Inhibition halo (diameter minus the diameter of the punched-out hole)” value is recorded as 300 μm in assay [2] and 400 μm in assay [3]. For the compound Potassium iodide-iodine complex, the Inhibition halo in assay [1] (setting [4]) was 14 mm.

For the origin of these results see patent publication US20080044474A1, “Dispersions of nanoureas comprising biologically active compounds” (Bayer MaterialScience AG, priority 2006, published 2008).
